Laboratory results as given in US20150296788A1, “PESTICIDALLY ACTIVE TRICYCLIC PYRIDYL DERIVATIVES” (SYNGENTA PARTICIPATIONS AG, priority 2012, published 2015).

Legend:
Assay type in all cases: in vivo
[1] = test system: Myzus persicae (Green Peach Aphid); experiment: Activity against Myzus persicae (green peach aphid), leaf disc, feeding/residual contact, preventive; details: foliar, 144 h, sunflower leaf discs sprayed, mixed-age aphid population, 6 days incubation
Experimental: Activity Against Myzus persicae (Green Peach Aphid)
(Mixed Population, Feeding/Residual Contact Activity, Preventive)
(§1) Sunflower leaf discs were placed on agar in a 24-well microtiter plate and sprayed with test solutions. After drying, the leaf discs were infested with an aphid population of mixed ages. After an incubation period of 6 days, samples were checked for mortality.

[2] = test system: Bemisia tabaci (Cotton White Fly); experiment: Activity against Bemisia tabaci (cotton white fly), leaf disc, feeding/residual contact, preventive; details: foliar, 144 h, cotton leaf discs sprayed, 12 to 18 adults, 6 days after infestation
Experimental: Activity Against Bemisia tabaci (Cotton White Fly)
(Feeding/Residual Contact Activity, Preventive)
Cotton leaf discs were placed on agar in a 24-well microtiter plate and sprayed with test solutions. After drying, the leaf discs were infested with 12 to 18 adults. After an incubation period of 6 days after infestation, samples were checked for mortality and special effects (e.g. phytotoxicity).

[3] = test system: Frankliniella occidentalis (Western Flower Thrips); experiment: Activity against Frankliniella occidentalis (western flower thrips), leaf disc, feeding/residual contact, preventative; details: foliar, 168 h, sunflower leaf discs sprayed, mixed-age population, 7 DAT
Experimental: Activity Against Frankliniella occidentalis (Western Flower Thrips)
(Mixed Population, Feeding/Residual Contact Activity, Preventative)
as §1, with “are” for “were”, “a Frankliniella” for “an aphid”, “7 DAT,” for “6 days,”, “mortality and special effects (e.g. phytotoxicity).” for “mortality.”

c1cncc(-n2cc(-c3ccc4c(n3)-c3ncncc3CC4)cn2)c1 [Compound 1.001, 9-[1-(3-pyridyl)pyrazol-4-yl]-5,6-dihydropyrido[3,2-h]quinazoline] was tested, and the mortality at 200 ppm [1] was over 80% and the mortality at 200 ppm [2] was over 80%.
In the case of CN1c2ccc(-c3cnn(-c4cccnc4)c3)nc2-c2[nH]ncc2S1(=O)=O [Compound 1.004, 5-methyl-8-(1-pyridin-3-yl-1H-pyrazol-4-yl)-1,5-dihydro-4-thia-1,2,5,9-tetraaza-cyclopenta[a]naphthalene 4,4-dioxide], the mortality at 200 ppm [1] is reported as over 80%, the mortality at 200 ppm [3] is reported as over 80% and the mortality at 200 ppm [2] is reported as over 80%.
For CN1c2ccc(-c3cnn(-c4cccnc4)c3)nc2-c2ncncc2S1(=O)=O [Compound 1.003, 9-methyl-6-(1-pyridin-3-yl-1H-pyrazol-4-yl)-9H-10-thia-2,4,5,9-tetraaza-phenanthrene 10,10-dioxide], the mortality at 200 ppm [1] was over 80% and the mortality at 200 ppm [3] was over 80%.
In the case of c1cncc(-n2cc(-c3ccc4c(n3)-c3n[nH]cc3CC4)cn2)c1 [Compound 1.002, 8-[1-(3-pyridyl)pyrazol-4-yl]-4,5-dihydro-2H-pyrazolo[4,3h]quinoline], the mortality at 200 ppm [1] is reported as over 80% and the mortality at 200 ppm [2] is reported as over 80%.
